Measured values published in patent publication US20220117972A1, “USE OF PPAR-DELTA AGONISTS IN THE TREATMENT OF MITOCHONDRIAL MYOPATHY” (Reneo Pharmaceuticals, Inc., priority 2019, published 2022).

Legend:
FXR = molecular target: T1, FXR (Homo sapiens, UniProt Q96RI1); assay: nuclear receptor FXR activity; type: cell-based
T1 sequence (Q96RI1 1-486): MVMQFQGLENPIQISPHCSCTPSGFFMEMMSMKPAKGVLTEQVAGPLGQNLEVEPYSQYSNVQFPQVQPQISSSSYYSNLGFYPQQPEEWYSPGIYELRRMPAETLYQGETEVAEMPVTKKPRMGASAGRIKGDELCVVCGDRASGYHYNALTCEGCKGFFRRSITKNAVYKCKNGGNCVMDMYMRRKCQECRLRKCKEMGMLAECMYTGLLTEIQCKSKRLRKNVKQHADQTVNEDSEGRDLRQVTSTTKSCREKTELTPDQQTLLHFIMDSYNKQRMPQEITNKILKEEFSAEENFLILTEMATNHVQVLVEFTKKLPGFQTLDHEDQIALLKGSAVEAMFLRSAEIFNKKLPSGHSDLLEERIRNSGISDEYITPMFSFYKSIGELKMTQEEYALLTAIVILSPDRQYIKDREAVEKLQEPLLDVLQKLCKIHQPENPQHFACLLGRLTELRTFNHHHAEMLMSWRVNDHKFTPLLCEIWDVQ

PGC1, CPT1b expression = assay: in vivo gene expression in mouse muscle, second study (time course); conditions: male C57BL/6 mice, 30 mg/kg once daily, at 48 hrs
Procedure: In a second study, male C57BL/6 mice were dosed once daily for four consecutive days. On the first day of treatment all mice in each group received a single dose of either the vehicle or Compound 1 at 30 mg/kg. Following the dose administration on the first day, five mice from each group were anesthetized and euthanized at each of the following time points: 1, 2, 4, 8, 24, 48, 72 and 96 hours. Animals left after the time point 24 hours received the second dose. Animals left after the time point 48 hours received the third dose. Animals left after the time point 72 hours received the fourth dose. Mice designated for time point 96 hours were euthanized on day 5.

rat muscle cell lines = assay: fatty acid oxidation in rat muscle cell line; type: cell-based; conditions: in vitro
PPARγ = molecular target: T2, PPARγ (Macaca mulatta, UniProt O18924); assay: PPAR receptor transactivation assay, monkey PPARγ; type: cell-based
T2 construct: expressed in transfected cells; host or cells: Jump-In GripTite HEK293
T2 sequence (O18924 238-503 limits assumed): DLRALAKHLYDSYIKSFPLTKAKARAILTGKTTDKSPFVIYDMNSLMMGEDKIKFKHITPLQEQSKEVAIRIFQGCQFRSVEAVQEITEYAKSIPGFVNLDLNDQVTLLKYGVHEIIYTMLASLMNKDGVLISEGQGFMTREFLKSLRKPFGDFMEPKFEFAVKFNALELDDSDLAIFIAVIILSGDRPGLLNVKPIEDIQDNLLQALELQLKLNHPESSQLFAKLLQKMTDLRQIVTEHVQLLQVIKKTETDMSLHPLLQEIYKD
Procedure: The genes of interest were synthesized and cloned into an appropriate Jump-In™ retargeting vector following the User Guide of the Jump-In™ T-REx™ HEK293 Retargeting Kit (ThermoFisher Catalog No A15008). For example, the vector will be used to transfect and retarget the Jump-In™ HEK293 GripTite™ parental cell line. Stable pools will be antibiotic-selected for about 21 days and tested for target gene expression by functional assay.
Jump-In™ GripTite™ HEK293 parental cells were plated at 60-80% confluency in a T-75 flask in growth medium without antibiotics and transfected with a 1:1 ratio of expression construct and R4 integrase expression construct (20 μg DNA total) using Lipofectamine® LTX (50 μL) and PLUS™ Reagent (20 μL). Following a 48 hours incubation, cells were selected with 600 μg/mL Geneticin® and 10 μg/mL Blasticidin for ˜21 days in growth medium.
Jump-In™ GripTite™ HEK293 rPPAR Alpha, Delta or Gamma UAS-bla-Gal4 cell pools were plated in a 384-well plate format (20,000 cells per well) in OptiMeM without FBS in replicates (n=4). […] After 16 hours, the cells were loaded with LiveBLAzer®, a fluorescent BLA substrate that gives a blue/green readout of expressing/non-expressing cells, respectively. The blue/green readout was measured on a fluorescent plate reader (Tecan Safire II).

activity on the nuclear receptor FXR (FXR): did not show any | EC50 (PPARγ): > 1000 nM
Compound: Cc1cc(OC/C=C(/c2ccc(F)cc2)c2ccc(C#CCN3CCOCC3)cc2)ccc1OCC(=O)O [Compound 1, (E)-[4-[3-(4-Fluorophenyl)-3-[4-[3-(morpholin-4-yl)propynyl]phenyl]allyloxy]-2-methyl-phenoxy]acetic acid]
expression of CPT1b (PGC1, CPT1b expression): increased the expression | expression of PGC1 (PGC1, CPT1b expression): increased the expression | fatty acid oxidation (rat muscle cell lines): dose-dependent increase
